Data reported in patent publication US8440710B2, “HSL inhibitors useful in the treatment of diabetes” (Hoffmann-La Roche Inc., priority 2009, dated 2013).

Molecular target: T1, human HSL (Homo sapiens, UniProt Q05469)
T1 construct: generate a full length human HSL ORF with a 3′-His6 tag; made in house; host or cells: High 5 insect cells (baculovirus, pFast-BAC)
T1 sequence (Q05469 1-1076): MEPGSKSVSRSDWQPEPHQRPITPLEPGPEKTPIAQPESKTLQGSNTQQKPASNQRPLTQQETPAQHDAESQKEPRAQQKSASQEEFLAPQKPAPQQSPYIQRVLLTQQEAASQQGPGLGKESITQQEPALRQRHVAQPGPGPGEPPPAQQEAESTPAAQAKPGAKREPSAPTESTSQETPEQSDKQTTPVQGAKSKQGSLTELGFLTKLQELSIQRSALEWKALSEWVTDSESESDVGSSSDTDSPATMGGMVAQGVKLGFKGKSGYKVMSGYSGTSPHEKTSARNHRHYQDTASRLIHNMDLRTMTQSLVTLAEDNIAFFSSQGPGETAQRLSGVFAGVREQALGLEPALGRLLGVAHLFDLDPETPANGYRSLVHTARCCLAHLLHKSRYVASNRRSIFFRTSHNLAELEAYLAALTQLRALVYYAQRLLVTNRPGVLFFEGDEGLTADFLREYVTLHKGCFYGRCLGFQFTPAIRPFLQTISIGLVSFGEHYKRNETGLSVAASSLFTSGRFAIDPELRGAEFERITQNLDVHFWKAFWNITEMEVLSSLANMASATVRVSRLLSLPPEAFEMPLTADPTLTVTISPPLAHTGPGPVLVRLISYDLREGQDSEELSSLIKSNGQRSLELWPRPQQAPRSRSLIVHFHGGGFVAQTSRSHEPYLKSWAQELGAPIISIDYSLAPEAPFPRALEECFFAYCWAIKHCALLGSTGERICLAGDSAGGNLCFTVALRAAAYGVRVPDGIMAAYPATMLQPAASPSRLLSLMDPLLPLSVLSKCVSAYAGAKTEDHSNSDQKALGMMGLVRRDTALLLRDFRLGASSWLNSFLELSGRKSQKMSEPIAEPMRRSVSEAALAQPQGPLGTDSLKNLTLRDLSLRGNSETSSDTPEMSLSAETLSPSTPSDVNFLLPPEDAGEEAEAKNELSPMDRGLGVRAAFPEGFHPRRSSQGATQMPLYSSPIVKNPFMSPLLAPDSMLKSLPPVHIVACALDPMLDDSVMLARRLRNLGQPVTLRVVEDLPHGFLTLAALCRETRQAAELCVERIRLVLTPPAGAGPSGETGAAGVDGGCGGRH
Assay: Human Hormone-Sensitive Lipase (HSL) enzyme inhibition assay (colorimetric, DMPT substrate)
Format: biochemical
Details: human full length HSL-His6, 2,3-dimercapto-1-propanol tributyrate substrate, 37° C. 20 minutes, absorbance at 405 nm; read-out: HSL hum IC50
Outline: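 Full-length human HSL with C-terminal His6, expressed in baculovirus-infected High 5 cells and Ni-NTA purified, was added (15 ug/ml stock) to 1.5 mM DMPT in 100 mM MOPS pH 7.2, 0.2 mg/ml fatty acid-free BSA containing compound. After 20 min at 37 °C, DTNB with SDS/Triton X-100 was added; A405 read after 15 min at RT.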

Row | Structure (SMILES) | IC50 [nM]
1 | CCCOC[C@]1(O)CC[C@]2(CCN(c3ccc(OCC(F)(F)F)nc3)C2=O)CC1 [Example 267, (5α,8α)-8-Hydroxy-8-propoxymethyl-2-[6-(2,2,2-trifluoro-ethoxy)-pyridin-3-yl]-2-aza-spiro[4.5]decan-1-one] | 30
2 | CCCOC[C@]1(O)CC[C@]2(CCN(c3ccc(O[C@@H](C)C(F)(F)F)nc3)C2=O)CC1 [Example 268, (5α,8α)-8-Hydroxy-8-propoxymethyl-2-[6-((S)-2,2,2-trifluoro-1-methyl-ethoxy)-pyridin-3-yl]-2-aza-spiro[4.5]decan-1-one] | 20
3 | CCCOC[C@]1(O)CC[C@]2(CCN(c3ccc(O[C@@H](C)C(F)(F)F)cc3)C2=O)CC1 [Example 269, (5α,8α)-8-Hydroxy-8-propoxymethyl-2-[4-((S)-2,2,2-trifluoro-1-methyl-ethoxy)-phenyl]-2-aza-spiro[4.5]decan-1-one] | 10
4 | CCOC[C@]1(O)CC[C@]2(CCN(c3ccc(C4CC4)cc3)C2=O)CC1 [Example 271, (5α,8α)-2-(4-Cyclopropyl-phenyl)-8-ethoxymethyl-8-hydroxy-2-aza-spiro[4.5]decan-1-one] | 30
5 | CCCOC[C@]1(O)CC[C@]2(CCN(c3ccc(C4CC4)cc3)C2=O)CC1 [Example 272, (5α,8α)-2-(4-Cyclopropyl-phenyl)-8-hydroxy-8-propoxymethyl-2-aza-spiro[4.5]decan-1-one] | 20
6 | O=C1N(c2ccc(OCC(F)(F)F)nc2)CC[C@]12CC[C@@](O)(COCC(F)(F)F)CC2 [Example 279, (5α,8α)-8-Hydroxy-8-(2,2,2-trifluoro-ethoxymethyl)-2-[6-(2,2,2-trifluoro-ethoxy)-pyridin-3-yl]-2-aza-spiro[4.5]decan-1-one] | 20
7 | C[C@H](Oc1ccc(N2CC[C@]3(CC[C@](O)(COCC(F)(F)F)CC3)C2=O)cn1)C(F)(F)F [Example 280, (5α,8β)-8-Hydroxy-8-(2,2,2-trifluoro-ethoxymethyl)-2-[6-((S)-2,2,2-trifluoro-1-methyl-ethoxy)-pyridin-3-yl]-2-aza-spiro[4.5]decan-1-one] | 980
8 | C[C@H](Oc1ccc(N2CC[C@]3(CC[C@@](O)(COCC(F)(F)F)CC3)C2=O)cn1)C(F)(F)F [Example 281, (5α,8α)-8-Hydroxy-8-(2,2,2-trifluoro-ethoxymethyl)-2-[6-((S)-2,2,2-trifluoro-1-methyl-ethoxy)-pyridin-3-yl]-2-aza-spiro[4.5]decan-1-one] | 10
9 | O=C1N(c2ccc(CC(F)(F)F)cc2)CC[C@]12CC[C@](O)(COCC(F)(F)F)CC2 [Example 286, (5α,8β)-8-Hydroxy-8-(2,2,2-trifluoro-ethoxymethyl)-2-[4-(2,2,2-trifluoro-ethyl)-phenyl]-2-aza-spiro[4.5]decan-1-one] | 190
10 | O=C1N(c2ccc(CC(F)(F)F)cc2)CC[C@]12CC[C@@](O)(COCC(F)(F)F)CC2 [Example 287, (5α,8α)-8-Hydroxy-8-(2,2,2-trifluoro-ethoxymethyl)-2-[4-(2,2,2-trifluoro-ethyl)-phenyl]-2-aza-spiro[4.5]decan-1-one] | 10
11 | CC(C)CCOC[C@]1(O)CC[C@]2(CCN(c3ccc(OCC(F)(F)F)cc3)C2=O)CC1 [Example 291, (5α,8α)-8-Hydroxy-8-(3-methyl-butoxymethyl)-2-[4-(2,2,2-trifluoro-ethoxy)-phenyl]-2-aza-spiro[4.5]decan-1-one] | 20

Now from value to compound:

Row | IC50 [nM] | Structure (SMILES)
12 | 10 | CCCOC[C@]1(O)CC[C@]2(CCN(c3ccc(O[C@H](C)C(F)(F)F)cc3)C2=O)CC1 [Example 270, (5α,8α)-8-Hydroxy-8-propoxymethyl-2-[4-((R)-2,2,2-trifluoro-1-methyl-ethoxy)-phenyl]-2-aza-spiro[4.5]decan-1-one]
13 | 20 | O=C1N(c2ccc(OCC(F)(F)F)cc2)CC[C@]12CC[C@@](O)(COCC1CCCC1)CC2 [Example 273, (5α,8α)-8-[(Cyclopentylmethoxy)methyl]-8-hydroxy-2-[4-(2,2,2-trifluoro-ethoxy)-phenyl]-2-aza-spiro[4.5]decan-1-one]
14 | 20 | CC(C)(C)COC[C@]1(O)CC[C@]2(CCN(c3ccc(OCC(F)(F)F)cc3)C2=O)CC1 [Example 274, (5α,8α)-8-(2,2-Dimethyl-propoxymethyl)-8-hydroxy-2-[4-(2,2,2-trifluoro-ethoxy)-phenyl]-2-aza-spiro[4.5]decan-1-one]
15 | 80 | CCS(=O)(=O)C[C@]1(O)CC[C@]2(CCN(c3ccc(OCC(F)(F)F)cc3)C2=O)CC1 [Example 275, (5α,8α)-8-Ethanesulfonylmethyl-8-hydroxy-2-[4-(2,2,2-trifluoro-ethoxy)-phenyl]-2-aza-spiro[4.5]decan-1-one]
16 | 10 | CC(C)OC[C@]1(O)CC[C@]2(CCN(c3ccc(OCC(F)(F)F)cc3)C2=O)CC1 [Example 276, (5α,8α)-8-Hydroxy-8-isopropoxymethyl-2-[4-(2,2,2-trifluoro-ethoxy)-phenyl]-2-aza-spiro[4.5]decan-1-one]
17 | 40 | O=C1N(c2ccc(OCC(F)(F)F)cc2)CC[C@]12CC[C@@](O)(COCCC(F)(F)F)CC2 [Example 277, (5α,8α)-8-Hydroxy-2-[4-(2,2,2-trifluoro-ethoxy)-phenyl]-8-(3,3,3-trifluoro-propoxymethyl)-2-aza-spiro[4.5]decan-1-one]
18 | 20 | O=C1N(c2ccc(OCC(F)(F)F)cc2)CC[C@]12CC[C@](O)(COc1ccccn1)CC2 [Example 278, (5α,8β)-8-Hydroxy-8-(pyridin-2-yloxymethyl)-2-[4-(2,2,2-trifluoro-ethoxy)-phenyl]-2-aza-spiro[4.5]decan-1-one]
19 | 400 | C[C@H](Oc1ccc(N2CC[C@]3(CC[C@](O)(COCC(F)(F)F)CC3)C2=O)cc1)C(F)(F)F [Example 282, (5α,8β)-8-Hydroxy-8-(2,2,2-trifluoro-ethoxymethyl)-2-[4-((S)-2,2,2-trifluoro-1-methyl-ethoxy)-phenyl]-2-aza-spiro[4.5]decan-1-one]
20 | 10 | C[C@H](Oc1ccc(N2CC[C@]3(CC[C@@](O)(COCC(F)(F)F)CC3)C2=O)cc1)C(F)(F)F [Example 283, (5α,8α)-8-Hydroxy-8-(2,2,2-trifluoro-ethoxymethyl)-2-[4-((S)-2,2,2-trifluoro-1-methyl-ethoxy)-phenyl]-2-aza-spiro[4.5]decan-1-one]
21 | 360 | C[C@@H](Oc1ccc(N2CC[C@]3(CC[C@](O)(COCC(F)(F)F)CC3)C2=O)cc1)C(F)(F)F [Example 284, (5α,8β)-8-Hydroxy-8-(2,2,2-trifluoro-ethoxymethyl)-2-[4-((R)-2,2,2-trifluoro-1-methyl-ethoxy)-phenyl]-2-aza-spiro[4.5]decan-1-one]
22 | 10 | C[C@@H](Oc1ccc(N2CC[C@]3(CC[C@@](O)(COCC(F)(F)F)CC3)C2=O)cc1)C(F)(F)F [Example 285, (5α,8α)-8-Hydroxy-8-(2,2,2-trifluoro-ethoxymethyl)-2-[4-((R)-2,2,2-trifluoro-1-methyl-ethoxy)-phenyl]-2-aza-spiro[4.5]decan-1-one]
23 | 800 | O=C1N(c2ccc(C3CC3)cc2)CC[C@]12CC[C@](O)(COCC(F)(F)F)CC2 [Example 288, (5α,8β)-2-(4-Cyclopropyl-phenyl)-8-hydroxy-8-(2,2,2-trifluoro-ethoxymethyl)-2-aza-spiro[4.5]decan-1-one]
24 | 20 | O=C1N(c2ccc(C3CC3)cc2)CC[C@]12CC[C@@](O)(COCC(F)(F)F)CC2 [Example 289, (5α,8α)-2-(4-Cyclopropyl-phenyl)-8-hydroxy-8-(2,2,2-trifluoro-ethoxymethyl)-2-aza-spiro[4.5]decan-1-one]
25 | 20 | O=C1N(c2ccc(OCC(F)(F)F)cc2)CC[C@]12CC[C@@](O)(COCCC1CC1)CC2 [Example 290, (5α,8α)-8-(2-Cyclopropyl-ethoxymethyl)-8-hydroxy-2-[4-(2,2,2-trifluoro-ethoxy)-phenyl]-2-aza-spiro[4.5]decan-1-one]
26 | 10 | CC(OC[C@]1(O)CC[C@]2(CCN(c3ccc(OCC(F)(F)F)cc3)C2=O)CC1)C(F)(F)F (stereo partly drawn) [Example 292, (5α,8α)-8-Hydroxy-2-[4-(2,2,2-trifluoro-ethoxy)-phenyl]-8-(2,2,2-trifluoro-1-methyl-ethoxymethyl)-2-aza-spiro[4.5]decan-1-one]
